Results: ChEMBL document CHEMBL3045845, “Predicting 3H-1,2,4-triazolinones as angiotensin II receptor antagonists: 2D and 3D QSAR by kNN-molecular field analysis approach” (Med Chem Res, 2012)

Target: T1, Angiotensin II receptor (AT-1) type-1 (Rattus norvegicus, UniProt P29089+P25095)
T1 sequence (P29089 whole entry): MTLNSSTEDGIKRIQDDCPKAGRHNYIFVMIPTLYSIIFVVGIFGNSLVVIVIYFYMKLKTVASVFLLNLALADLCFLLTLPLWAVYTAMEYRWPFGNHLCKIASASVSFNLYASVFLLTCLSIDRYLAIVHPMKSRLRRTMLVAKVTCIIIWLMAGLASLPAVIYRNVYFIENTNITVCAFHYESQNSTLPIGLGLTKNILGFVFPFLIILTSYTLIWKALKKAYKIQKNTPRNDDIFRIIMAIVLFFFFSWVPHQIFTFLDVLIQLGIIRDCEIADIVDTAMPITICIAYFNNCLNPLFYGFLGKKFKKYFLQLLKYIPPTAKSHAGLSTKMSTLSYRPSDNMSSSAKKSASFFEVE
T1 sequence (P25095 whole entry): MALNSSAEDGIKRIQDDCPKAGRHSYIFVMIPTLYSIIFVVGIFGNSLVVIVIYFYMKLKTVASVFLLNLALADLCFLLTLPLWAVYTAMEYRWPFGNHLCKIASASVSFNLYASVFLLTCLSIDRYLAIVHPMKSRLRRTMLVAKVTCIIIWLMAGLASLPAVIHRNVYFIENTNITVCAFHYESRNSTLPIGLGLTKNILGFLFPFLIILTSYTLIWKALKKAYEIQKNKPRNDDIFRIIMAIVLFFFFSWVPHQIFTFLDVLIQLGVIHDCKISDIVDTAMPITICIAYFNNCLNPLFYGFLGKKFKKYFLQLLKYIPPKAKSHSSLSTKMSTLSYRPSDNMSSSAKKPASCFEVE
Test: Displacement of [125I]-angiotensin 2 from angiotensin AT1 receptor in Rattus norvegicus (rat) uterine membranes

| SMILES | IC50 | pIC50 |
| --- | --- | --- |
| CCCCc1nn(CC(=O)C23CC4CC(CC(C4)C2)C3)c(=O)n1Cc1ccc(-c2ccccc2-c2nn[nH]n2)cc1 | 25 nM | 7.602 |
| CCCCc1nn(CC(OCC)c2ccccc2)c(=O)n1Cc1ccc(-c2ccccc2-c2nn[nH]n2)cc1 (stereo unspecified) | 15 nM | 7.824 |
| CCCCc1nn(CC(OCC(=O)O)c2ccccc2)c(=O)n1Cc1ccc(-c2ccccc2-c2nn[nH]n2)cc1 (stereo unspecified) | 30 nM | 7.523 |
| CCCCc1nn(CCCCC(=O)O)c(=O)n1Cc1ccc(-c2ccccc2-c2nn[nH]n2)cc1 | 12 nM | 7.921 |
| CCCCc1nn(C(Cc2ccccc2)C(=O)c2ccccc2)c(=O)n1Cc1ccc(-c2ccccc2-c2nn[nH]n2)cc1 (stereo unspecified) | 5800 nM | 5.237 |
| CCCCc1nn(CCC2CCCCC2)c(=O)n1Cc1ccc(-c2ccccc2-c2nn[nH]n2)cc1 | 18 nM | 7.745 |
| CCCCc1nn(CC(OCCC)c2ccccc2)c(=O)n1Cc1ccc(-c2ccccc2-c2nn[nH]n2)cc1 (stereo unspecified) | 45 nM | 7.347 |
| CCCCc1nn(C(CC(=O)OCC)C(=O)c2ccccc2)c(=O)n1Cc1ccc(-c2ccccc2-c2nn[nH]n2)cc1 (stereo unspecified) | 36 nM | 7.444 |
| CCCCc1nn(CCCc2ccccc2)c(=O)n1Cc1ccc(-c2ccccc2-c2nn[nH]n2)cc1 | 18 nM | 7.745 |
| CCCCc1nn(CC(OCc2ccccc2)c2ccccc2)c(=O)n1Cc1ccc(-c2ccccc2-c2nn[nH]n2)cc1 (stereo unspecified) | 280 nM | 6.553 |
| CCCCc1nn(CC(OCC(=O)OCC)c2ccccc2)c(=O)n1Cc1ccc(-c2ccccc2-c2nn[nH]n2)cc1 (stereo unspecified) | 180 nM | 6.745 |
| CCCCCCCCn1nc(CCCC)n(Cc2ccc(-c3ccccc3-c3nn[nH]n3)cc2)c1=O | 170 nM | 6.77 |
| CCCCc1nn(CCCCCC(=O)OCC)c(=O)n1Cc1ccc(-c2ccccc2-c2nn[nH]n2)cc1 | 9.8 nM | 8.009 |
| CCCCc1nn(CCCCCC(=O)O)c(=O)n1Cc1ccc(-c2ccccc2-c2nn[nH]n2)cc1 | 17 nM | 7.77 |
| CCCCCCn1nc(CCCC)n(Cc2ccc(-c3ccccc3-c3nn[nH]n3)cc2)c1=O | 8.7 nM | 8.06 |
| CCCCc1nn(CCCC)c(=O)n1Cc1ccc(-c2ccccc2C(=O)O)cc1 | 101 nM | 6.996 |
| CCCCc1nn(C(C)(C)C(=O)c2ccccc2)c(=O)n1Cc1ccc(-c2ccccc2-c2nn[nH]n2)cc1 | 43 nM | 7.367 |
| CCCCc1nnc(O)n1Cc1ccc(-c2ccccc2-c2nn[nH]n2)cc1 | 42 nM | 7.377 |
| CCCCCn1nc(CCCC)n(Cc2ccc(-c3ccccc3-c3nn[nH]n3)cc2)c1=O | 5.6 nM | 8.252 |
| CCCCc1nnc(O)n1Cc1ccc(-c2ccccc2C(=O)O)cc1 | 1500 nM | 5.824 |
| CCCCc1nn(CCC(C)CC(C)(C)C)c(=O)n1Cc1ccc(-c2ccccc2-c2nn[nH]n2)cc1 (stereo unspecified) | 35 nM | 7.456 |
| CCCCc1nn(C(C)CC)c(=O)n1Cc1ccc(-c2ccccc2-c2nn[nH]n2)cc1 (stereo unspecified) | 10 nM | 8 |

More lines, now with the values ahead:

| IC50 | pIC50 | SMILES |
| --- | --- | --- |
| 12 nM | 7.921 | CCCCc1nn(CC(OC)c2ccccc2)c(=O)n1Cc1ccc(-c2ccccc2-c2nn[nH]n2)cc1 (stereo unspecified) |
| 3.6 nM | 8.444 | CCCCc1nn(CC(O)c2ccccc2)c(=O)n1Cc1ccc(-c2ccccc2-c2nn[nH]n2)cc1 (stereo unspecified) |
| 22 nM | 7.658 | CCCCc1nn(CC(O)c2cc(OC)ccc2OC)c(=O)n1Cc1ccc(-c2ccccc2-c2nn[nH]n2)cc1 (stereo unspecified) |
| 16 nM | 7.796 | CCCCc1nn(CC(=O)OC(C)(C)C)c(=O)n1Cc1ccc(-c2ccccc2-c2nn[nH]n2)cc1 |
| 3.1 nM | 8.509 | CCCCc1nn(CCc2ccccc2)c(=O)n1Cc1ccc(-c2ccccc2-c2nn[nH]n2)cc1 |
| 21 nM | 7.678 | CCCCc1nn(CC(=O)c2cc(OC)ccc2OC)c(=O)n1Cc1ccc(-c2ccccc2-c2nn[nH]n2)cc1 |
| 16 nM | 7.796 | CCCCc1nn(Cc2ccccc2)c(=O)n1Cc1ccc(-c2ccccc2-c2nn[nH]n2)cc1 |
| 9 nM | 8.046 | CCCCc1nn(CC(=O)OCC)c(=O)n1Cc1ccc(-c2ccccc2-c2nn[nH]n2)cc1 |
| 91 nM | 7.041 | CCCCc1nn(CC(=O)O)c(=O)n1Cc1ccc(-c2ccccc2-c2nn[nH]n2)cc1 |
| 15 nM | 7.824 | CCCCc1nn(CCC)c(=O)n1Cc1ccc(-c2ccccc2-c2nn[nH]n2)cc1 |
| 280 nM | 6.553 | CCCCc1nn(Cc2ccc3ccccc3c2)c(=O)n1Cc1ccc(-c2ccccc2-c2nn[nH]n2)cc1 |
